From ChEMBL document CHEMBL2385010, “Discovery of aryl ureas and aryl amides as potent and selective histamine H3 receptor antagonists for the treatment of obesity (part I)” (Bioorg Med Chem Lett, 2013)
Converted amounts (≈) assume the structure as drawn.

Assays:
[1] = biological target: Melanin-concentrating hormone receptor 1 (Homo sapiens) (UniProt Q99705); assay: Antagonist activity at human MCH1R assessed as inhibition of calcium mobilization at 10 uM by FLIPR assay relative to control; format: functional
[2] = biological target: T1, Histamine H3 receptor (Homo sapiens, UniProt Q9Y5N1); assay: Antagonist activity at human histamine H3 receptor in human T-REx-293 cells assessed as inhibition of basal GTPgammaS binding at 10 uM after 90 mins by scintillation counting analysis relative to control; format: functional, cell-based; settings: HEK293
[3] = biological target: hERG (KCNH2) (Homo sapiens, UniProt Q12809); assay: Inhibition of human ERG at 10 uM relative to control
[4] = Solubility of the compound; format: physicochemical
[5] = biological target: Histamine H1 receptor (Homo sapiens) (UniProt P35367); assay: Antagonist activity at human histamine H1 receptor assessed as inhibition of calcium mobilization at 10 uM by FLIPR assay relative to control; format: functional
[6] = biological target: Histamine H2 receptor (Homo sapiens) (UniProt P25021); assay: Antagonist activity at human histamine H2 receptor assessed as inhibition of calcium mobilization at 10 uM by FLIPR assay relative to control; format: functional
[7] = biological target: T1, Histamine H3 receptor; assay: Antagonist activity at human histamine H3 receptor expressed in HEK293 cells assessed as inhibition of calcium mobilization by FLIPR assay; format: functional, cell-based
[8] = biological target: Histamine receptor H3 (Macaca mulatta, UniProt Q865E1); assay: Displacement of [3H]N-alpha-methylhistamine from cloned rhesus monkey histamine H3 receptor transfected in CHO cells after 1 hr by scintillation counting analysis; format: cell-based
[9] = biological target: Histamine H3 receptor (Rattus norvegicus, UniProt Q9QYN8); assay: Displacement of [3H]N-alpha-methylhistamine from cloned rat histamine H3 receptor transfected in CHO cells after 1 hr by scintillation counting analysis; format: cell-based
[10] = biological target: T1, Histamine H3 receptor; assay: Displacement of [3H]N-alpha-methylhistamine from cloned human histamine H3 receptor transfected in CHO cells after 1 hr by scintillation counting analysis; format: cell-based
[11] = Drug metabolism in mouse liver microsomes; format: ADME, Microsome; settings: read-out: Drug metabolism
[12] = Drug metabolism in human liver microsomes; format: ADME, Microsome; settings: read-out: Drug metabolism
[13] = Drug metabolism in rat liver microsomes; format: ADME, Microsome; settings: read-out: Drug metabolism

Chain of Histamine H2 receptor (Homo sapiens) (P25021 whole entry): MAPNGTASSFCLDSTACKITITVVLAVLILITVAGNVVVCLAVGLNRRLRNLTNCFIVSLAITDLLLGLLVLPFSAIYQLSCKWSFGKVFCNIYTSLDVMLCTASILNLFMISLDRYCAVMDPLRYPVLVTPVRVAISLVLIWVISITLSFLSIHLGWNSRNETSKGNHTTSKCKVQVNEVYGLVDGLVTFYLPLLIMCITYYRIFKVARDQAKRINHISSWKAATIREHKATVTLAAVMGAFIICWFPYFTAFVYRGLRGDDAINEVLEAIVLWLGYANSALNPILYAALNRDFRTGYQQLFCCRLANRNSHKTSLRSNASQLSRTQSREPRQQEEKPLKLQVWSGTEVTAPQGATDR
Chain of Melanin-concentrating hormone receptor 1 (Homo sapiens) (Q99705 whole entry): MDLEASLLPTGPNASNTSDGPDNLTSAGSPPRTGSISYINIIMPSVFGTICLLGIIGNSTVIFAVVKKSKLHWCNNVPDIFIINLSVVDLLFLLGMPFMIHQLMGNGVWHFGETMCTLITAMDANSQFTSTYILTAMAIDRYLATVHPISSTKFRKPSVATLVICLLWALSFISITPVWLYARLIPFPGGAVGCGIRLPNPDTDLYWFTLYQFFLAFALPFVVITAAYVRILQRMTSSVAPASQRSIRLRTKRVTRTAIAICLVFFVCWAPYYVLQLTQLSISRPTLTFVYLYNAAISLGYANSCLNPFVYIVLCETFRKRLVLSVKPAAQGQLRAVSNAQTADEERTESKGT
T1 sequence (Q9Y5N1 whole entry): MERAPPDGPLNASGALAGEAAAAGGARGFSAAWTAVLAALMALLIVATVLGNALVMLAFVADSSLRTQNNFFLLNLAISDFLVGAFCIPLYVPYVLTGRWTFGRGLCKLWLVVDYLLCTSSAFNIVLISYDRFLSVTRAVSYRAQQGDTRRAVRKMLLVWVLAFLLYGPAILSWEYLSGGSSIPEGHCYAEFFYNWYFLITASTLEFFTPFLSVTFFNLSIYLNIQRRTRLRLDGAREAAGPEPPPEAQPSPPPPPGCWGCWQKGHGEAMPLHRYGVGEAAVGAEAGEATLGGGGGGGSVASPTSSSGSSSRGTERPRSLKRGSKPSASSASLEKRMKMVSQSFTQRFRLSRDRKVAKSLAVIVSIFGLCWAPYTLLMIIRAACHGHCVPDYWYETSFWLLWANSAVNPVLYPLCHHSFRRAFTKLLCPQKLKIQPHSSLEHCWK
Chain of Histamine H3 receptor (Rattus norvegicus, UniProt Q9QYN8) (Q9QYN8 whole entry): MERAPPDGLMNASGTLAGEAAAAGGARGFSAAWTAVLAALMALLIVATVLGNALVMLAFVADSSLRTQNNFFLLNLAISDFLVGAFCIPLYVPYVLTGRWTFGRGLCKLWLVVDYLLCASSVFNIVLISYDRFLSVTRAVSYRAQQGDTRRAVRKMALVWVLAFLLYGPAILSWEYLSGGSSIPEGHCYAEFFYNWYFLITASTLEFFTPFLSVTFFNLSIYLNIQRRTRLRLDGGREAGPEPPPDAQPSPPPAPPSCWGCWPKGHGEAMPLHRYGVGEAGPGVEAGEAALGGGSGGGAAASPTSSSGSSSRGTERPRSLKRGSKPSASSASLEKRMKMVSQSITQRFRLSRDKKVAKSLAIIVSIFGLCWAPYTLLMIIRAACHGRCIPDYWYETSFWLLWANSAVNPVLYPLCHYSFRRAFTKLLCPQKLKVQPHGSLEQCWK
Chain of Histamine receptor H3 (Q865E1 whole entry): as the sequence (Q9Y5N1 whole entry) above, with D148N, A240G, V282A, A289T, T290A, V300A, H442Q counted along it
Chain of Histamine H1 receptor (Homo sapiens) (P35367 whole entry): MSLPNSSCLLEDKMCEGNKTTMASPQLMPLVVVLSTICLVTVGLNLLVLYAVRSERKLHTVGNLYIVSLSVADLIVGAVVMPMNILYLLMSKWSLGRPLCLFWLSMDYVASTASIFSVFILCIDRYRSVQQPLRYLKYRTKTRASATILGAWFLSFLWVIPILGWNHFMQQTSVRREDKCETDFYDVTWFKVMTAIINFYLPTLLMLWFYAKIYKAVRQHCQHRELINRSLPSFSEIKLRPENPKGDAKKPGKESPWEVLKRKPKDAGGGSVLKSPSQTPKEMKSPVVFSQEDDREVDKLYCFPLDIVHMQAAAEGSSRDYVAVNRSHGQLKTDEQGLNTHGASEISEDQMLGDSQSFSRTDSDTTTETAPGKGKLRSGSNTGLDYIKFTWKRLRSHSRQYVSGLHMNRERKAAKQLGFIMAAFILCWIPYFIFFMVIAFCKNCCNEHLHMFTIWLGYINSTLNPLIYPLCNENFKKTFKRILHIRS
Chain of hERG (KCNH2) (Q12809 whole entry): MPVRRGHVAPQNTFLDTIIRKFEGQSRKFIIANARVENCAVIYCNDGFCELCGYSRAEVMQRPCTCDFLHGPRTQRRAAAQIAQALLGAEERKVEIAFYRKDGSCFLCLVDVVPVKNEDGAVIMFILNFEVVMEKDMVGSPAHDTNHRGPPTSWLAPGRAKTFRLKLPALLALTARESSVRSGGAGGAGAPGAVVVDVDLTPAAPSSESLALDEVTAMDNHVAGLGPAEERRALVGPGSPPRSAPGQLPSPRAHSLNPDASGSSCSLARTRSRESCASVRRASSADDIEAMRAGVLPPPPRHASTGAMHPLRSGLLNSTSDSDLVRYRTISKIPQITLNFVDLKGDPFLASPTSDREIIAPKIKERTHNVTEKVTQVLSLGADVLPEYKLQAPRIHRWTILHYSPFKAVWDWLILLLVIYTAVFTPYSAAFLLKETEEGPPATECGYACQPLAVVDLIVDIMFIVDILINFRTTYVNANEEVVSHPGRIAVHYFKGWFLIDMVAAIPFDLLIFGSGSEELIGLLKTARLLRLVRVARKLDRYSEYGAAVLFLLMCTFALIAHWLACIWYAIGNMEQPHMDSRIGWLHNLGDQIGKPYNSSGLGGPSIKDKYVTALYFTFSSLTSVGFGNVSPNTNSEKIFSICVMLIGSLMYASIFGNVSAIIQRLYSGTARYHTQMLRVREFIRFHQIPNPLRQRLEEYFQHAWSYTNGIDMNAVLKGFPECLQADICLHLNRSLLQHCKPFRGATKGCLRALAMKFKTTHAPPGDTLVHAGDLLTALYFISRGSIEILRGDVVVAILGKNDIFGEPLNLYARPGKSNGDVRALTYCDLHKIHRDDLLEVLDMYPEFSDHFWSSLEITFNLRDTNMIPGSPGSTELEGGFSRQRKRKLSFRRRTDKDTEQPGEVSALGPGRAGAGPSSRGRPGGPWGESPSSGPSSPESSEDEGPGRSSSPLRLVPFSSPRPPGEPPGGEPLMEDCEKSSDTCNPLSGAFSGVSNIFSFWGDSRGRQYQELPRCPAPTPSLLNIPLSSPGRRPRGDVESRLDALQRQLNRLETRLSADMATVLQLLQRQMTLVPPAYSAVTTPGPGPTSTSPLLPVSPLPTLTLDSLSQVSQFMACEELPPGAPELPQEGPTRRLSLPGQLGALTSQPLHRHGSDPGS

SMILES | inhibition [1] | inhibition [2] | inhibition [5] | inhibition [6] | IC50 [7] | further results
Cc1cc(N2CCC(N3CCCC3C)C2)ccc1NC(=O)Nc1cc(Cl)cc(Cl)c1 (configuration not stated) | < 40% | 126% | < 40% | < 40% | 0.9 nM | inhibition at 10 µM [3]: 74%; solubility [4]: 10.5 µg/mL (≈ 23.5 µM)
CCN(CC)CCOc1ccc(NC(=O)Nc2ccc(Cl)cc2Cl)cc1 |  | 118% |  |  | 39.1 nM | 
Cc1cc(NC(=O)Nc2ccc(Oc3ccccc3)cc2)ccc1N1CCC(N2CCCC2C)C1 (configuration not stated) | < 40% | 126% | < 40% | < 40% | 0.6 nM | Ki [8]: 115 nM
CC1CCCN1C1CCN(c2ccc(NC(=O)N3CCN(C)CC3)cc2)C1 (configuration not stated) | < 40% | 132% | < 40% | < 40% | 0.2 nM | 
CC1CCCN1C1CCN(c2ccc(NC(=O)Nc3ccc(Oc4ccccc4)cc3)cc2)C1 (configuration not stated) | < 40% | 113% | < 40% | < 40% | 1.4 nM | Ki [8]: 46.8 nM
O=C(Nc1ccc(OCCN2CCCCC2)cc1)Nc1ccc(F)cc1F |  | 115% |  |  | 40.5 nM | 
Cc1cc(N2CCC(N3CCCC3C)C2)ccc1NC(=O)N1CCN(C)CC1 (configuration not stated) | < 40% | 120% | < 40% | < 40% | 0.8 nM | 
Cc1cc(NC(=O)Nc2cc(Cl)cc(Cl)c2)ccc1N1CCC(N2CCCC2C)C1 (configuration not stated) | < 40% | 103% | < 40% | < 40% | 3.1 nM | 
CN(C)CCOc1ccc(NC(=O)Nc2ccc(Cl)cc2)cc1 |  | 99% |  |  | 16.4 nM | 
Cc1cc(NC(=O)NC2CCCCC2)ccc1N1CCC(N2CCCC2C)C1 (configuration not stated) | < 40% | 130% | < 40% | < 40% | 0.2 nM | 
O=C(Nc1ccc(OCCCN2CCCCC2)cc1)Nc1cc(Cl)cc(Cl)c1 | < 40% | 125% | < 40% | < 40% | 0.5 nM | Ki [8]: 3.4 nM
CC(=O)N1CCN(C(=O)Nc2ccc(N3CCC(N4CCCC4C)C3)c(C)c2)CC1 (configuration not stated) | < 40% | 115% | < 40% | < 40% | 2.3 nM | 
CC(=O)N(C)C1CCN(C(=O)Nc2ccc(N3CCC(N4CCCC4C)C3)cc2)C1 (configuration not stated) | < 40% | 109% | < 40% | < 40% | 1.1 nM | 
CCN(CC)CCOc1ccc(NC(=S)Nc2ccc(OCC(C)C)cc2)cc1 |  | 129% |  |  | 0.6 nM | Ki [9]: 39.9 nM; Ki [10]: 16.8 nM; Ki [8]: 15.7 nM
Cc1cccc(NC(=O)Nc2ccc(OCCCN(C)C)cc2)c1C |  | 125% |  |  | 14.7 nM | 
CC1CCCN1C1CCN(c2ccc(NC(=O)NCc3cccs3)cc2)C1 (configuration not stated) | < 40% | 129% | < 40% | < 40% | 0.1 nM | Ki [8]: 1.9 nM
Cc1c(Cl)cc(NC(=O)Nc2ccc(OCCCN3CCCCC3)cc2)cc1Cl |  | 133% |  |  | 0.2 nM | metabolised [11]: 34%; solubility [4]: 6 µg/mL (≈ 13.7 µM); Ki [9]: 135 nM; Ki [10]: 112 nM; Ki [8]: 18.2 nM; metabolised [12]: 10%; metabolised [13]: 36%
Cc1cc(NC(=O)NCc2cc(Cl)cc(Cl)c2)ccc1N1CCC(N2CCCC2C)C1 (configuration not stated) | < 40% | 130% | < 40% | < 40% | 1.1 nM | 
Cc1cc(NC(=O)N2CCN(C)CC2)ccc1N1CCC(N2CCCC2C)C1 (configuration not stated) | < 40% | 118% | < 40% | < 40% | 1.1 nM | 

SMILES | inhibition [1] | inhibition [2] | inhibition [5] | inhibition [6] | IC50 [7] | further results
CN(C)CCc1ccc(NC(=O)Nc2ccc(CCN(C)C)cc2)cc1 |  | 94.7% |  |  | 6.5 nM | 
CC1CCCN1C1CCN(c2ccc(NC(=O)N3CCN(c4ccccc4)CC3)cc2)C1 (configuration not stated) | < 40% | 122% | < 40% | < 40% | 0.4 nM | 
Cc1cc(N2CCC(N3CCCC3C)C2)ccc1NC(=O)NC1CCCCC1 (configuration not stated) | < 40% | 110% | < 40% | < 40% | 0.2 nM | 
O=C(Nc1ccc(Cl)cc1)Nc1ccc(OCCN2CCCCC2)cc1 |  | 105% |  |  | 27.5 nM | 
CC1CCCN1C1CCN(c2ccc(NC(=O)NCc3cc(Cl)cc(Cl)c3)cc2)C1 (configuration not stated) | < 40% | 144% | < 40% | < 40% | 0.2 nM | Ki [8]: 7.1 nM
CC(=O)N1CCN(C(=O)Nc2ccc(N3CCC(N4CCCC4C)C3)cc2)CC1 (configuration not stated) | < 40% | 127% | < 40% | < 40% | 0.5 nM | 
CC1CCCN1C1CCN(c2ccc(NC(=O)Nc3cc(Cl)cc(Cl)c3)cc2)C1 (configuration not stated) | < 40% | 103% | < 40% | < 40% | 1.2 nM | 
O=C(Nc1ccc(OCCCN2CCCCC2)cc1)Nc1ccc(F)cc1F |  | 128% |  |  | 0.5 nM | Ki [9]: 33 nM; Ki [10]: 52 nM; Ki [8]: 3.4 nM
CCOc1ccc(C)cc1NC(=O)Nc1ccc(OCCN(CC)CC)cc1 |  | 107% |  |  | 9.1 nM | 
Cc1cccc(NC(=O)Nc2ccc(OCCN(C)C)cc2)c1C |  | 94% |  |  | 73.1 nM | 
CC1CCCN1C1CCN(c2ccc(NC(=O)NC3CCCCC3)cc2)C1 (configuration not stated) | < 40% | 122% | < 40% | < 40% | 0.1 nM | 
CN(C)CCOc1ccc(NC(=O)Nc2ccc(F)cc2F)cc1 |  | 102% |  |  | 149 nM | 
CC1CCCN1C1CCN(c2ccc(NC(=O)N3CCCCC3)cc2)C1 (configuration not stated) | < 40% | 108% | < 40% | < 40% | 0.3 nM | 
Cc1cc(NC(=O)NCc2cccs2)ccc1N1CCC(N2CCCC2C)C1 (configuration not stated) | < 40% | 125% | < 40% | < 40% | 0.2 nM | 
CCN(CC)CCCOc1ccc(NC(=O)Nc2ccc(F)cc2F)cc1 |  | 124% |  |  | 7.9 nM | 
CC(=O)N(C)C1CCN(C(=O)Nc2ccc(N3CCC(N4CCCC4C)C3)c(C)c2)C1 (configuration not stated) | < 40% | 118% | < 40% | < 40% | 1.1 nM | 
CCN(CC)CCOc1ccc(NC(=O)Nc2c(Cl)cccc2Cl)cc1 |  | 116% |  |  | 1 nM | 
O=C(Nc1ccc(Cl)cc1)Nc1ccc(OCCCN2CCCCC2)cc1 |  | 119% |  |  | 0.7 nM | 
CCN(CC)CCOc1ccc(NC(=O)Nc2ccc(F)cc2F)cc1 |  | 117% |  |  | 111 nM | 
